From PubChem BioAssay AID248 (DTP/NCI, 2004)
Several values for one entry are separate records, joined by “and”; a condition that tells them apart may be missing. Identical values can stand only once. Inconclusive results and toxic doses are left out. Cut-off read from the data, not from the text of the source: active = T/C of 150% or more; inactive = T/C below 125%.

System: L1210 leukemia ip in BDF1 mice, survival T/C
Assay: NCI In Vivo Anticancer Drug Screen. Data for tumor model L1210 Leukemia (intraperitoneal) in B6D2F1 (BDF1) mice
Details: endpoint: mean survival time, higher = longer survival
Method in brief: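 Survival endpoint. Drug-treated group vs vehicle group, expressed as T divided by C. Tumor passaged by transplantation.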

[1] = dose: 100.0 mg/kg/injection, schedule: Q04DX003 (ip), vehicle: saline with Tween-80
[2] = dose: 200.0 mg/kg/injection, schedule: Q04DX003 (ip), vehicle: saline with Tween-80
[3] = dose: 100.0 mg/kg/injection, schedule: Q04DX003 (ip), vehicle: saline
[4] = dose: 200.0 mg/kg/injection, schedule: Q04DX003 (ip), vehicle: saline
[5] = dose: 400.0 mg/kg/injection, schedule: Q04DX003 (ip), vehicle: saline
[6] = dose: 100.0 mg/kg/injection, schedule: Q04DX002 (ip), vehicle: saline with Tween-80
[7] = dose: 200.0 mg/kg/injection, schedule: Q04DX002 (ip), vehicle: saline with Tween-80
[8] = dose: 400.0 mg/kg/injection, schedule: Q04DX002 (ip), vehicle: saline with Tween-80
[9] = dose: 100.0 mg/kg/injection, schedule: Q04DX003 (ip), vehicle: Klucel (hydroxypropylcellulose) (HPC)
[10] = dose: 200.0 mg/kg/injection, schedule: Q04DX003 (ip), vehicle: Klucel (hydroxypropylcellulose) (HPC)
[11] = dose: 400.0 mg/kg/injection, schedule: Q04DX003 (ip), vehicle: Klucel (hydroxypropylcellulose) (HPC)
[12] = dose: 100.0 mg/kg/injection, schedule: Q01DX009 (ip), vehicle: saline
[13] = dose: 200.0 mg/kg/injection, schedule: Q01DX009 (ip), vehicle: saline

Measured: T/C

CC1OC(n2cnc3c(=S)nc[nH]c32)C(O)C1O (stereo unspecified)
inactive: dose: 50.0 mg/kg/injection, schedule: Q01DX001 (ip), vehicle: saline 93 % of control | dose: 100.0 mg/kg/injection, schedule: Q01DX001 (ip), vehicle: saline 96 % of control | dose: 200.0 mg/kg/injection, schedule: Q01DX001 (ip), vehicle: saline 102 % of control | dose: 400.0 mg/kg/injection, schedule: Q01DX001 (ip), vehicle: saline 93 % of control

CC(O)c1cccc([N+](=O)[O-])c1 (stereo unspecified)
inactive: dose: 100.0 mg/kg/injection, schedule: Q01DX009 (ip), vehicle: saline with Tween-80 104 % of control | dose: 200.0 mg/kg/injection, schedule: Q01DX009 (ip), vehicle: saline with Tween-80 94 % of control | dose: 400.0 mg/kg/injection, schedule: Q01DX009 (ip), vehicle: saline with Tween-80 90 % of control

CCN(CC)C(=O)Nc1cccc(OC(=O)NC)c1
inactive: [1] 99 % of control | [2] 98 % of control

Cc1c(C#N)c2ccccc2c2ccccc12
inactive: [3] 103 % of control | [4] 103 % of control | [5] 95 % of control

Cc1ccc(S(=O)(=O)OCC(C)([N+](=O)[O-])[N+](=O)[O-])cc1
inactive: [6] 94 % of control | [7] 97 % of control | [8] 101 % of control

CC(=O)OC1CCC2(C)C(=CCC3C2CCC2(C)C3CC(Br)C2C(C)=O)C1 (stereo unspecified)
inactive: [9] 107 % of control | [10] 88 % of control | [11] 103 % of control

COCCNC1=C(F)C(=O)C(NCCOC)=C(F)C1=O
inactive: dose: 3.12 mg/kg/injection, schedule: Q04DX003 (ip), vehicle: Klucel (hydroxypropylcellulose) (HPC) 90 % of control | dose: 6.25 mg/kg/injection, schedule: Q04DX003 (ip), vehicle: Klucel (hydroxypropylcellulose) (HPC) 111 % of control | dose: 12.5 mg/kg/injection, schedule: Q04DX003 (ip), vehicle: Klucel (hydroxypropylcellulose) (HPC) 98 % of control | dose: 25.0 mg/kg/injection, schedule: Q04DX003 (ip), vehicle: Klucel (hydroxypropylcellulose) (HPC) 95 % of control | dose: 50.0 mg/kg/injection, schedule: Q04DX003 (ip), vehicle: Klucel (hydroxypropylcellulose) (HPC) 95 % of control | [9] 97 % of control | dose: 150.0 mg/kg/injection, schedule: Q04DX003 (ip), vehicle: Klucel (hydroxypropylcellulose) (HPC) 94 % of control | dose: 225.0 mg/kg/injection, schedule: Q04DX003 (ip), vehicle: Klucel (hydroxypropylcellulose) (HPC) 94 % of control | dose: 335.0 mg/kg/injection, schedule: Q04DX003 (ip), vehicle: Klucel (hydroxypropylcellulose) (HPC) 95 % of control

O=C(Nc1cc(C(F)(F)F)ccc1Cl)C(=O)Nc1cc(C(F)(F)F)ccc1Cl
inactive: dose: 100.0 mg/kg/injection, schedule: Q01DX009 (ip), vehicle: gum acacia 88 % of control | dose: 200.0 mg/kg/injection, schedule: Q01DX009 (ip), vehicle: gum acacia 93 % of control | dose: 400.0 mg/kg/injection, schedule: Q01DX009 (ip), vehicle: gum acacia 93 % of control

Cc1ncc(CC#N)c2c1OC(C)(C)OC2
inactive: dose: 12.5 mg/kg/injection, schedule: Q01DX001 (ip), vehicle: carboxymethylcellulose (CMC) 107 % of control | dose: 25.0 mg/kg/injection, schedule: Q01DX001 (ip), vehicle: carboxymethylcellulose (CMC) 104 % of control | dose: 50.0 mg/kg/injection, schedule: Q01DX001 (ip), vehicle: carboxymethylcellulose (CMC) 101 % of control

CCCCP(=[Se])(CCCC)CCCC
inactive: dose: 0.78 mg/kg/injection, schedule: Q01DX009 (ip), vehicle: Klucel (hydroxypropylcellulose) (HPC) 93 % of control | dose: 1.56 mg/kg/injection, schedule: Q01DX009 (ip), vehicle: Klucel (hydroxypropylcellulose) (HPC) 97 % of control | dose: 3.12 mg/kg/injection, schedule: Q01DX009 (ip), vehicle: Klucel (hydroxypropylcellulose) (HPC) 112 % of control | dose: 6.25 mg/kg/injection, schedule: Q01DX009 (ip), vehicle: Klucel (hydroxypropylcellulose) (HPC) 104 % of control

O=C(Nc1ccccc1)OC1CCCC2CCCCC21 (stereo unspecified)
inactive: [9] 96 % of control | [10] 96 % of control | [11] 93 % of control

CCCCSCC(N)C(=O)OC (stereo unspecified)
inactive: [12] 96 % of control | [3] 106 % of control | [13] 101 % of control | [4] 100 % of control | dose: 400.0 mg/kg/injection, schedule: Q01DX009 (ip), vehicle: saline 112 % of control | [5] 97 % of control

CCOC(=O)c1ccc(N=NNc2ccc(C(=O)OCC)cc2)cc1
inactive: dose: 10.0 mg/kg/injection, schedule: Q01DX Z (ip), vehicle: other 95 % of control | dose: 30.0 mg/kg/injection, schedule: Q01DX Z (ip), vehicle: other 87 % of control

CC(=O)[O][Hg][c]1c(N)c(C)cc(C)c1F
inactive: dose: 2.5 mg/kg/injection, schedule: Q01DX009 (ip), vehicle: saline 91 % of control | dose: 5.0 mg/kg/injection, schedule: Q01DX009 (ip), vehicle: saline 95 % of control | dose: 6.25 mg/kg/injection, schedule: Q04DX003 (ip), vehicle: saline 101 % of control | dose: 10.0 mg/kg/injection, schedule: Q01DX009 (ip), vehicle: saline 98 % of control | dose: 12.5 mg/kg/injection, schedule: Q04DX003 (ip), vehicle: saline 91 % of control | dose: 25.0 mg/kg/injection, schedule: Q04DX003 (ip), vehicle: saline 94 % of control and 100 % of control | [3] 95 % of control

OC(C#CC(O)c1ccccc1)c1ccccc1 (stereo unspecified)
inactive: [12] 86 % of control | [1] 97 % of control | [13] 108 % of control | [2] 94 % of control | dose: 400.0 mg/kg/injection, schedule: Q04DX003 (ip), vehicle: saline with Tween-80 87 % of control

O=C1CC(c2ccccc2)C(c2ccccc2)C(=O)N1 (stereo unspecified)
inactive: dose: 75.0 mg/kg/injection, schedule: Q01DX001 (ip), vehicle: saline 90 % of control | dose: 150.0 mg/kg/injection, schedule: Q01DX001 (ip), vehicle: saline 90 % of control

C[C@]12C=CC(=O)C=C1CC[C@@H]1[C@@H]2[C@@H](O)C[C@@]2(C)[C@H]1CC[C@]2(O)C(=O)COC(=O)C1CCCC1
inactive: dose: 89.0 mg/kg/injection, schedule: Q01DX Z (sc), vehicle: distilled water + alcohol 111 % of control | dose: 89.0 mg/kg/injection, schedule: Q01DX Z (sc), vehicle: steriod suspending solution 104 % of control | dose: 130.0 mg/kg/injection, schedule: Q01DX Z (sc), vehicle: steriod suspending solution 98 % of control | dose: 133.0 mg/kg/injection, schedule: Q01DX Z (sc), vehicle: distilled water + alcohol 96 % of control | dose: 200.0 mg/kg/injection, schedule: Q01DX Z (sc), vehicle: distilled water + alcohol 96 % of control | dose: 200.0 mg/kg/injection, schedule: Q01DX Z (sc), vehicle: steriod suspending solution 112 % of control | dose: 300.0 mg/kg/injection, schedule: Q01DX Z (sc), vehicle: distilled water + alcohol 108 % of control | dose: 300.0 mg/kg/injection, schedule: Q01DX Z (sc), vehicle: steriod suspending solution 93 % of control

O=C(CSc1ncc2ccccn12)c1ccccc1
inactive: [6] 106 % of control | [7] 92 % of control | [8] 95 % of control

Cc1nc2cc(N=Cc3ccc(N(CCCl)CCCl)cc3)ccc2n1C
inactive: dose: 68.8 mg/kg/injection, schedule: Q04DX002 (ip), vehicle: Klucel (hydroxypropylcellulose) (HPC) 104 % of control | dose: 137.5 mg/kg/injection, schedule: Q04DX002 (ip), vehicle: Klucel (hydroxypropylcellulose) (HPC) 104 % of control | dose: 275.0 mg/kg/injection, schedule: Q04DX002 (ip), vehicle: Klucel (hydroxypropylcellulose) (HPC) 104 % of control
